Experimental data taken from patent US20250275959A1, “COMPOUNDS AND METHODS OF THEIR USE” (LEXICON PHARMACEUTICALS, INC., priority 2024, published 2025).

Columns and labels:
hACSL5 [1] = target: T1, hACSL5 (Homo sapiens (Human), UniProt Q9ULC5); test: Human ACSL5 coupled enzyme Amplex Red assay; format: biochemical; conditions: read-out: hACSL5 IC50
Description: Human ACSL5 (33-683) was cloned with a C-terminal 6 His tag and expressed in insect cells (sf9) as per standard insect cell expression protocols. Human ACSL5 was enriched by affinity nickel affinity chromatography followed by Superdex S200 gel filtration column equilibrated in 20 mM HEPES pH 7.8, 500 mM NaCl, 1 mM TCEP, 5% glycerol, 0.1% Triton X^100.
Inhibition of ACSL5 enzyme activity was monitored with a coupled enzyme Amplex Red assay.
The assay is carried out in 384-well microtiterplates. In a total volume of […], compounds are preincubated with 20 nM ACSL5, in a buffer containing 150 mM MOPS-NaOH, 12 mM MgCl2, 0.03% (v/v) Triton X-100, 2.79 U mL-1 Peroxidase and 24 U mL-1 Acyl-CoA Oxidase (pH 7.6). The reaction is started by the addition of substrate and co factors (25 μM oleate, 30 μM CoA, 1 mM ATP and 50 μM Amplex Red) and the fluorescence detected after 10 minutes at 25° C. with a fluorescence reader (BMG-Fluostar; BMG-Technologies) using an excitation wavelength of 535 nm and an emission wavelength of 590 nm.
(§1) Concentration-response titration points for each compound tested were filled to the Hill equation yielding concentrations of half maximal inhibition […] and maximal inhibition values.
Target sequence in this assay (Q9ULC5 33-683): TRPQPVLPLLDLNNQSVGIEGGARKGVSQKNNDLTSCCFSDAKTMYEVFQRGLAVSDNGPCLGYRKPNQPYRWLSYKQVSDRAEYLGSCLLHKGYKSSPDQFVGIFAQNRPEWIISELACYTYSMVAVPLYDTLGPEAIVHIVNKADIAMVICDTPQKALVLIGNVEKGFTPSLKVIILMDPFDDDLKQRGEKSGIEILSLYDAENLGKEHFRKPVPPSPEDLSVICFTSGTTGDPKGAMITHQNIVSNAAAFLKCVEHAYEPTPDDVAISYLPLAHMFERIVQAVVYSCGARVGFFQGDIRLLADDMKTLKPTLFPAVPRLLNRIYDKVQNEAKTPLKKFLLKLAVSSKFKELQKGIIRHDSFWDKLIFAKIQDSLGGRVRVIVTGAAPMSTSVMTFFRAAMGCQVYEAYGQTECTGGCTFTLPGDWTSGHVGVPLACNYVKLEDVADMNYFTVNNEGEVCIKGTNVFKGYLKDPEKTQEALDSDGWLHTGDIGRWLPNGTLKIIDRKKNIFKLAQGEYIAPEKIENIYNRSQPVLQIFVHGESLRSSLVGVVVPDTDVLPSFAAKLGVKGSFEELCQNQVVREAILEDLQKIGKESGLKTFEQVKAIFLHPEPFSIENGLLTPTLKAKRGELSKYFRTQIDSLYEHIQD

hACSL5 [2] = target: T1, hACSL5; test: Cell-based assay (CBA) with B12FA in hACSL5-transfected Expi293F / FlpIn TRex293 cells; conditions: hACSL5-expressing cells
From the text: To assess the cell penetration and cellular activity of the compounds, a cell-based assay (CBA) was used to detect compound potency in living cells. The assay utilized the fluorescent fatty acid analogue B12FA, a boron-dipyrromethene (BODIPY™) labelled C12 fatty acid that can be incorporated into glycerophosphocholine in the cytoplasmic oil droplets of live cells. A concentration-dependent, red-shifted fluorescence can be induced by the formation of BODIPY™ excimers in the oil droplets.
Expi293F cells transfected with full length hACSL5 plasmid were selected using 1 mg/mL G418 culture medium and clones were selected by in vitro whole cell lysate (WCL) assay. The cell passage number used in the Expi293 CBA assay could not be used beyond 10 passages due to a decrease in hACSL5 expression. Therefore, a CBA using FlpIn TRex293 cells for inducible expression of hACSL5 was also established.
FlpIn TRex293 cells transfected with hACSL5 plasmid were selected in culture medium containing 15 µg/ml Blasticidin and 150 µg/ml Hygromycin. For cell-based assays, stable transfected hACSL5 cells were seeded onto a 96-well plate at 30-50k/well and incubated overnight. For the inducible system, […] tetracycline (or doxycycline) was added to culture medium of FlpIn TRex293 hACSL5 cells on the day before the assay to induce expression of hACSL5. The next day, growth media was replaced with culture medium without FBS and glucose (DMEM glucose (-), ThermoFisher) and cells were incubated for an hour before treating cells with serial diluted compounds containing 20 µM B12FA (ThermoFisher) for another 3 hours in the above medium. Cells were then fixed in 4% formaldehyde for 10 minutes and washed twice with PBS. The plate was read using the Cytation 5 imaging system with an excitation wavelength of 485 nm and observed emissions at 630 nm and 520 nm. The percentage of inhibition was calculated as: […]
wherein A is the ratio of emission intensities at 630 nm/520 nm in the absence of inhibitor (maximum ratio); B is the ratio of the intensities at those wavelengths in the presence of […] of the test compound or non-induced cells (minimum ratio); and X is the ratio of the intensities at a given compound concentration.
as §1
Target sequence in this assay (Q9ULC5 whole entry): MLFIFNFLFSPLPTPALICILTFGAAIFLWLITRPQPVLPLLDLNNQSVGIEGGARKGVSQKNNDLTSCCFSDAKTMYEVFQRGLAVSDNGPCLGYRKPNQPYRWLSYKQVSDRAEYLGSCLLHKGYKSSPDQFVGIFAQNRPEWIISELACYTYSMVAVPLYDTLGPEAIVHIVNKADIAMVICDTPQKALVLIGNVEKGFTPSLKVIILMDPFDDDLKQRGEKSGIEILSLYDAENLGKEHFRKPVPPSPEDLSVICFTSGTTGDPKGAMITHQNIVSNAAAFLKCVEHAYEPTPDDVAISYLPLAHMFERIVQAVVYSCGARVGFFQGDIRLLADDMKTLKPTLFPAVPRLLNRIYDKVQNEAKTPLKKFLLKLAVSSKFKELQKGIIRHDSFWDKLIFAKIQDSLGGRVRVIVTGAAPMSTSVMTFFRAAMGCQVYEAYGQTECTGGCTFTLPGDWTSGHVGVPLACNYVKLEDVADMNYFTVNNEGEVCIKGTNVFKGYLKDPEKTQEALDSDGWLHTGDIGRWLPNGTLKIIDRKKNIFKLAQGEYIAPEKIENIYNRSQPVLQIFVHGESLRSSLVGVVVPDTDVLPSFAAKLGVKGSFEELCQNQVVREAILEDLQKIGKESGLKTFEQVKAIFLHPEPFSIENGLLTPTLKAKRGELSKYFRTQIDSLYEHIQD

Row | SMILES | IC50 (hACSL5 [1]) | IC50 (hACSL5 [2])
1 | CC[C@@H](Oc1ccc(C(=O)NS(=O)(=O)N2CCC(OC3CCN(C)CC3)CC2)c(F)c1F)c1ccc(OC2CC(OC)C2)cn1 (stereo partly drawn) [2,3-difluoro-4-((R)-1-(5-((1R,3R)-3-methoxycyclobutoxy)pyridin-2-yl)propoxy)-N-((4-((1-methylpiperidin-4-yl)oxy)piperidin-1-yl)sulfonyl)benzamide] | < 100 nM | 100 to 500 nM
2 | CC[C@@H](Oc1ccc(C(=O)NS(=O)(=O)N2CCN(C)CC2)c(F)c1F)c1ccc(OC2CC(OC)C2)cn1 (stereo partly drawn) [2,3-difluoro-4-((R)-1-(5-((1R,3R)-3-methoxycyclobutoxy)pyridin-2-yl)propoxy)-N-((4-methylpiperazin-1-yl)sulfonyl)benzamide] | 100 to 500 nM | 100 to 500 nM
3 | CC[C@@H](Oc1ccc(C(=O)NS(=O)(=O)c2ccc(OC3CCCN(C)C3)cc2)c(F)c1F)c1ccc(Oc2ccccn2)cn1 (stereo partly drawn) [2,3-difluoro-N-((4-((1-methylpiperidin-3-yl)oxy)phenyl)sulfonyl)-4-((R)-1-(5-(pyridin-2-yloxy)pyridin-2-yl)propoxy)benzamide] | < 100 nM | < 100 nM
4 | CC(Oc1ccc(C(=O)NS(=O)(=O)c2cnn(CCN(C)C)c2)c(F)c1F)c1cccc(OCC2CC2)c1 (stereo not shown) [4-(1-(3-(cyclopropylmethoxy)phenyl)ethoxy)-N-((1-(2-(dimethylamino)ethyl)-1H-pyrazol-4-yl)sulfonyl)-2,3-difluorobenzamide] | 100 to 500 nM | > 500 nM
5 | CC[C@@H](Oc1ccc(C(=O)NS(=O)(=O)N2CCN(C)CC2)c(F)c1F)c1ccc(OC2CC(OC(F)F)C2)cn1 (stereo partly drawn) [4-((R)-1-(5-((1R,3R)-3-(difluoromethoxy)cyclobutoxy)pyridin-2-yl)propoxy)-2,3-difluoro-N-((4-methylpiperazin-1-yl)sulfonyl)benzamide] | 100 to 500 nM | 100 to 500 nM
6 | CC[C@@H](Oc1ccc(C(=O)NS(=O)(=O)N2CCC(OC3CCN(C)CC3)CC2)cc1C(F)(F)F)c1ccc(OC2CC(OC)C2)cn1 (stereo partly drawn) [4-((R)-1-(5-((1R,3R)-3-methoxycyclobutoxy)pyridin-2-yl)propoxy)-N-((4-((1-methylpiperidin-4-yl)oxy)piperidin-1-yl)sulfonyl)-3-(trifluoromethyl)benzamide] | < 100 nM | 100 to 500 nM
7 | CC[C@@H](Oc1ccc(C(=O)NS(=O)(=O)N2CCN(C)CC2)cc1C(F)(F)F)c1ccc(OC2CC(OC)C2)cn1 (stereo partly drawn) [4-((R)-1-(5-((1R,3R)-3-methoxycyclobutoxy)pyridin-2-yl)propoxy)-N-((4-methylpiperazin-1-yl)sulfonyl)-3-(trifluoromethyl)benzamide] | 100 to 500 nM | 100 to 500 nM
8 | CC[C@@H](Oc1ccc(C(=O)NS(=O)(=O)c2ccc(OCC[C@H]3CCCCN3C)cc2)c(F)c1F)c1ccc(OCC2CC2)cn1 [4-((R)-1-(5-(cyclopropylmethoxy)pyridin-2-yl)propoxy)-2,3-difluoro-N-((4-(2-((R)-1-methylpiperidin-2-yl)ethoxy)phenyl)sulfonyl)benzamide] | < 100 nM | 100 to 500 nM
9 | CC[C@@H](Oc1ccc(C(=O)NS(=O)(=O)c2ccc(OCCN3CC[C@H](F)C3)cc2)c(F)c1F)c1ccc(OCC2CC2)cn1 [4-((R)-1-(5-(cyclopropylmethoxy)pyridin-2-yl)propoxy)-2,3-difluoro-N-((4-(2-((S)-3-fluoropyrrolidin-1-yl)ethoxy)phenyl)sulfonyl)benzamide] | < 100 nM | 100 to 500 nM
10 | CC[C@@H](Oc1ccc(C(=O)NS(=O)(=O)N2CC3CC(C2)N3C)c(F)c1F)c1ccc(OCC2CC2)cn1 [4-((R)-1-(5-(cyclopropylmethoxy)pyridin-2-yl)propoxy)-2,3-difluoro-N-((6-methyl-3,6-diazabicyclo[3.1.1]heptan-3-yl)sulfonyl)benzamide] | < 100 nM | < 100 nM
11 | CC[C@@H](Oc1ccc(C(=O)NS(=O)(=O)N2CC3CCC(C2)N3C)c(F)c1F)c1ccc(OCC2CC2)cn1 [4-((R)-1-(5-(cyclopropylmethoxy)pyridin-2-yl)propoxy)-2,3-difluoro-N-((8-methyl-3,8-diazabicyclo[3.2.1]octan-3-yl)sulfonyl)benzamide] | < 100 nM | < 100 nM

Other lines, results leading:

Row | IC50 (hACSL5 [1]) | IC50 (hACSL5 [2]) | SMILES
12 | < 100 nM | 100 to 500 nM | CC[C@@H](Oc1ccc(C(=O)NS(=O)(=O)c2ccc(OC3CCN(C)C(C)(C)C3)cc2)c(F)c1F)c1ccc(OCC2CC2)cn1 (stereo partly drawn) [4-((R)-1-(5-(cyclopropylmethoxy)pyridin-2-yl)propoxy)-2,3-difluoro-N-((4-((1,2,2-trimethylpiperidin-4-yl)oxy)phenyl)sulfonyl)benzamide]
13 | < 100 nM | < 100 nM | CC[C@@H](Oc1ccc(C(=O)NS(=O)(=O)c2ccc(OC3CCCN(C)C3)cc2)c(F)c1F)c1ccc(OCC2CC2)cn1 (stereo partly drawn) [4-((R)-1-(5-(cyclopropylmethoxy)pyridin-2-yl)propoxy)-2,3-difluoro-N-((4-((1-methylpiperidin-3-yl)oxy)phenyl)sulfonyl)benzamide]
14 | < 100 nM | > 500 nM | CC[C@@H](Oc1ccc(C(=O)NS(=O)(=O)c2ccc(O[C@@H]3C[C@H]4C[C@@H]3CN4C)cc2)c(F)c1F)c1ccc(OCC2CC2)cn1 [4-((R)-1-(5-(cyclopropylmethoxy)pyridin-2-yl)propoxy)-2,3-difluoro-N-((4-(((1R,4R,5R)-2-methyl-2-azabicyclo[2.2.1]heptan-5-yl)oxy)phenyl)sulfonyl)benzamide]
15 | < 100 nM | 100 to 500 nM | CC[C@@H](Oc1ccc(C(=O)NS(=O)(=O)c2ccc(O[C@@H]3CCN(C)C3)cc2)c(F)c1F)c1ccc(OCC2CC2)cn1 [4-((R)-1-(5-(cyclopropylmethoxy)pyridin-2-yl)propoxy)-2,3-difluoro-N-((4-(((R)-1-methylpyrrolidin-3-yl)oxy)phenyl)sulfonyl)benzamide]
16 | < 100 nM | 100 to 500 nM | CC[C@@H](Oc1ccc(C(=O)NS(=O)(=O)c2ccc(O[C@H]3CCN(C)C3)cc2)c(F)c1F)c1ccc(OCC2CC2)cn1 [4-((R)-1-(5-(cyclopropylmethoxy)pyridin-2-yl)propoxy)-2,3-difluoro-N-((4-(((S)-1-methylpyrrolidin-3-yl)oxy)phenyl)sulfonyl)benzamide]
17 | < 100 nM | 100 to 500 nM | CC[C@@H](Oc1ccc(C(=O)NS(=O)(=O)N2CC3CC2CC3OCCN2CCCC2)c(F)c1F)c1ccc(OCC2CC2)cn1 (stereo partly drawn) [4-((R)-1-(5-(cyclopropylmethoxy)pyridin-2-yl)propoxy)-2,3-difluoro-N-((5-(2-(pyrrolidin-1-yl)ethoxy)-2-azabicyclo[2.2.1]heptan-2-yl)sulfonyl)benzamide]
18 | 100 to 500 nM | 100 to 500 nM | CC[C@@H](Oc1ccc(C(=O)NS(=O)(=O)N2C[C@H]3C[C@@H]2CN3C)c(F)c1F)c1ccc(OCC2CC2)cn1 [4-((R)-1-(5-(cyclopropylmethoxy)pyridin-2-yl)propoxy)-2,3-difluoro-N-(((1R,4R)-5-methyl-2,5-diazabicyclo[2.2.1]heptan-2-yl)sulfonyl)benzamide]
19 | 100 to 500 nM | 100 to 500 nM | CC[C@@H](Oc1ccc(C(=O)NS(=O)(=O)N2C[C@@H]3C[C@H]2CN3C)c(F)c1F)c1ccc(OCC2CC2)cn1 [4-((R)-1-(5-(cyclopropylmethoxy)pyridin-2-yl)propoxy)-2,3-difluoro-N-(((1S,4S)-5-methyl-2,5-diazabicyclo[2.2.1]heptan-2-yl)sulfonyl)benzamide]
20 | < 100 nM | < 100 nM | CC[C@@H](Oc1ccc(C(=O)NS(=O)(=O)N2C[C@@H](C)N(C)[C@@H](C)C2)c(F)c1F)c1ccc(OCC2CC2)cn1 [4-((R)-1-(5-(cyclopropylmethoxy)pyridin-2-yl)propoxy)-2,3-difluoro-N-(((3S,5R)-3,4,5-trimethylpiperazin-1-yl)sulfonyl)benzamide]
